Experimental data taken from US20240299326A1, “METHODS AND COMPOSITIONS FOR TREATING CANCER” (Onconova Therapeutics, Inc., priority 2021, published 2024).
Entries after “also recorded” stand apart in the source; their conditions may differ.

Tests used:
[1] = test system: SCC RDEB16 keratinocytes; test: Tumor xenograft of SCC RDEB16 keratinocytes, tumor volume by calipers; format: in vivo, Balb/c SCID mice; details: subcutaneous inoculation; dosing after tumors reached 100 mm^3, administered 6 times; harvested day 35; FIG. 2
Procedure: SCC RDEB16 keratinocytes were inoculated subcutaneously to Balb/c SCID mice. After tumors reached 100 mm^3, vehicle control, Rigosertib or Compound 1 (ATP-competitive inhibitor) were administered 6 times and tumor volume was measured with calipers. Tumors were harvested and photographed at day 35.

[2] = Phase 2 open-label single arm clinical study, safety and tolerability; format: in vivo, patients; details: single RDEB patient, CIV infusions
Procedure: A phase 2, open-label single arm was conducted. The study was designed to assess the efficacy and safety of Rigosertib in patients with recessive dystrophic epidermolysis bullosa (RDEB)-associated locally advanced/metastatic squamous cell carcinoma (SCC).
In addition to the assessment of safety and tolerability, efficacy was measured by the overall response rate as assessed by RECIST. Patients were treated until RECIST progression criteria were met (i.e. 20% increase in tumor diameter or appearance of new malignant lesions) for 12 consecutive months or until an unacceptable toxicity or intolerance, or until remission.
The study had two primary endpoints. The first was to determine the anti-tumor activity of rigosertib in RDEB patients with advanced SCC who had failed prior standard of care through the overall response rate (ORR), defined as the proportion of patients who achieved either a complete response (CR) or a partial response (PR). The second primary endpoint was to evaluate the safety and tolerability of rigosertib in the population. Secondary study endpoints included quality of life and a biomarker analysis performed on archival tissue from all patients. Patients were dosed for up to one year, with trial duration anticipated to be approximately two-and-a-half years. […]

[3] = test system: RDEB SCC keratinocytes; test: Cell death of RDEB SCC keratinocytes after 48 hours exposure, crystal violet staining / phase contrast; format: cell-based
Procedure: (§1) Panel A. Cells were seeded at high density and exposed to Rigosertib or vehicle control for 48 hours after which cells were fixed and stained with crystal violet. Panel B. Phase contrast images of unfixed cells in culture after given treatment of either control (left) or Rigosertib (1 μM, right).

[4] = test system: RDEB-associated locally advanced/metastatic squamous cell carcinoma (SCC); test: Phase 2 open-label single arm clinical study, tumor response (RECIST, MRI, clinical exam, histology); format: in vivo, patients
Procedure: The study had two primary endpoints. […] The second primary endpoint was to evaluate the safety and tolerability of rigosertib in the population. Secondary study endpoints included quality of life and a biomarker analysis performed on archival tissue from all patients. Patients were dosed for up to one year, with trial duration anticipated to be approximately two-and-a-half years.
Intravenous dosing: For continuous IV infusion as Rigosertib, sodium salt concentrate, 75 mg/mL, was formulated to contain 75 mg of Rigosertib sodium salt per mL (equivalent to 75 mg of Rigosertib sodium per mL) as a sterile solution in polyethylene glycol 400 (PEG 400) containing a small amount of sodium hydroxide for pH adjustment. Rigosertib.Na 75 mg/mL was packaged in single-use glass vials with Teflon-lined rubber stoppers containing 24 mL of drug product (1800 mg). Just prior to dosing, the Rigosertib concentrate (i.e. 1 glass vial, 24 mL) was diluted to a final volume of 500 ml in 0.9% sodium chloride for injection.
Efficacy Assessments: Overall response rate (ORR) was defined as the proportion of patients who achieved either a CR or a PR. Responses of complete remission (CR), partial remission (PR), mCR, SD, failure, and PD were determined by RECIST criteria. The number and percent of patients with CR, PR, mCR, SD, Failure or PD were summarized.
Response per RECIST criteria: Efficacy assessments included an initial tumor assessment at week 12 (±3 days) after first dose. Further tumor assessments were completed every 12 weeks (±3 days). Study evaluations were performed according to RECIST 1.1 criteria. High resolution CT with oral or IV contrast or contrast-enhanced MRI were used as imaging modalities for assessing radiographic tumor response. Screening/Baseline assessments were within 4 weeks of first dose of study drug. Brain MRI was used as an imaging method for evaluating CNS metastasis, and an assessment was required during screening/baseline and End of Therapy or as clinically indicated.
Target lesions: When more than one measurable lesion was present at baseline, all lesions up to a maximum of 5 lesions total (and a maximum of two lesions per site), representative of all involved sites, were investigated as target lesions and are recorded and measured at baseline. Target lesions were selected on the basis of size (lesions with the longest diameter) and were representative of all involved sites. A sum of the diameters (longest for non-nodal lesions, short axis for nodal lesions) for all target lesions were calculated and reported as the baseline sum diameters. If lymph nodes were included in the sum, only the short axis was added into the sum. The baseline sum diameters were used as reference to characterize any objective tumor regression in the measurable dimension of the disease. […]

[5] = test system: normal primary keratinocytes; test: Effect on normal primary keratinocytes after 48 hours exposure, crystal violet staining / phase contrast; format: cell-based; details: FIG. 1
Procedure: as §1

[6] = one RDEB patient, intravenous rigosertib, 12 week MRI and clinic visit

Which results are given for `COc1cc(OC)c(/C=C/S(=O)(=O)Cc2ccc(OC)c(NCC(=O)O)c2)c(OC)c1` [Rigosertib, (E)-2-(5-((2,4,6-trimethoxystyrylsulfonyl)methyl)-2-methoxyphenylamino)acetic acid]?
tumor growth (tumor volume) of RDEB SCC keratinocytes in vivo [1]: inhibits RDEB SCC keratinocyte grown in vivo; observed adverse effects [2]: CTCAE grade II irritative cystitis; also recorded: alopecia; also recorded: recurrent episode of bacteriaemia; also recorded: nausea; also recorded: increased lesional pain; also recorded: amenorrhea; safety and tolerability [2]: favorable; cell death in RDEB SCC keratinocytes ([3]; 48 hours exposure, Rigosertib 1 μM in phase contrast images, FIG. 1): induces cell death; specificity / therapeutic window separating tumor and normal cells ([3]; preclinical models, RDEB SCC keratinocytes vs normal cells): largest therapeutic window separating tumor and normal cells; metastatic disease after trial completion ([4]; RDEB patient, 17 treatment cycles): without signs of metastatic disease; remission of target lesions after trial completion ([4]; RDEB patient, 72 hr CIV infusions 1800 mg/24 h days 1-3, 17 treatment cycles): sustained clinical and histological remission of all target lesions; histology of biopsied target lesions (left hand, right elbow) ([4]; V25 (day 169-175)): no histological signs of malignancy; resolution of squamous cell target lesions (left hand), clinical exam and MRI [4, 6]: complete resolution of two of three squamous cell target lesions; third target lesion (right elbow) [4, 6]: reduction in the third target lesion; effect on normal primary keratinocytes [5]: without affecting normal primary keratinocytes
